In US20210165001A1, “COMPOSITIONS AND METHODS FOR DETECTION AND IMAGING OF AMYLOID FIBRILS, AMYLOID PLAQUES, RNA, AND NUCLEOLI” (The University of Hong Kong, priority 2018, published 2021):

Key:
Assay type in all cases: biochemical
[1] = biological target: T1, insulin amyloid fibrillation (Homo sapiens, UniProt P01308); assay: kinetics of insulin amyloid fibrillation reported by probe (sigmoid fit); settings: method: Emission; insulin 10 μM; thioflavin T 10 μM (490 nm) or complex 1-Pt 50 μM (650 nm); no L-ascorbic acid
T1 sequence (P01308 25-54 limits assumed): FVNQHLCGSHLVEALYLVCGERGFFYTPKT
T1 sequence (P01308 90-110 limits assumed): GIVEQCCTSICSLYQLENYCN
Procedure: To induce amyloid fibrillation, insulin was dissolved at 1.0 mg mL^−1 in an acidic buffer ([NaCl]=137 mM, [KCl]=2.7 mM, pH=2.0). The solution was incubated at 65° C. and stirred at 300 rpm. Insulin samples with different incubation times were added to a solution of thioflavin T in a PBS buffer (10.0 mM, pH=7.4). The final concentrations of insulin and thioflavin T were both 10 μM. The emission spectra were recorded at 25° C. at an excitation wavelength of 440 nm. Similarly, insulin samples with different incubation times were added to a solution of complex 1-Pt in a PBS buffer (10.0 mM, pH=7.4, 10% DMSO). The final concentrations of insulin and complex 1-Pt were 10 μM and 50 μM, respectively. UV-Vis absorption spectra, emission spectra, and RLS spectra were recorded at 25° C.; the emission spectra were recorded at an excitation wavelength of 400 nm.
In kinetics, insulin amyloid fibrillation can be modeled by a sigmoid function with three different phases: lag phase, log phase, and stationary phase. The values of kapp and tlag for insulin amyloid fibrillation were determined using the sigmoid function which was based on the equation shown below (see similar examples of data fitting in Nielsen et al., Biochemistry, 40:6036-6046 (2001); Hwang et al., J. Biol. Chem., 285:41701-41711 (2010); and Donabedian et al., ACS Chem. Neurosci., 6:1526-1535 (2015)). […]

[2] = biological target: T1, insulin amyloid fibrillation; assay: effect of L-ascorbic acid on insulin amyloid fibrillation, thioflavin T fluorescence assay; settings: detected by thioflavin T
Procedure: (§1) In kinetics, insulin amyloid fibrillation can be modeled by a sigmoid function with three different phases: lag phase, log phase, and stationary phase. The values of kapp and tlag for insulin amyloid fibrillation were determined using the sigmoid function which was based on the equation shown below (see similar examples of data fitting in Nielsen et al., Biochemistry, 40:6036-6046 (2001); Hwang et al., J. Biol. Chem., 285:41701-41711 (2010); and Donabedian et al., ACS Chem. Neurosci., 6:1526-1535 (2015)).
(§2) where y is the absorbance, emission intensity, or RLS intensity; A1 is the absorbance, emission intensity, or RLS intensity before amyloid fibrillation; A2 is the absorbance, emission intensity, or RLS intensity after amyloid fibrillation; x is the incubation time; xo is the incubation time at which the absorbance, emission intensity, or RLS intensity is at half maximum; and dx is the time constant. Accordingly, the apparent rate constant, kapp, is equivalent to 1/dx, and the lag time, tlag, is given by xo−2dx.
(§3) Insulin was dissolved at 1.0 mg mL^−1 in an acidic buffer ([NaCl]=137 mM, [KCl]=2.7 mM, pH=2.0) in the presence of different amounts (0, 10, 20, 50, 70, 100 mM) of L-ascorbic acid. The solution was incubated at 65° C. and stirred at 300 rpm. Aliquots were withdrawn at a desired time interval. Insulin samples (10 μM) with different incubation times were added to a solution of thioflavin T (10 μM) in a PBS buffer (10.0 mM, pH=7.4). The emission spectra were recorded at 25° C. at an excitation wavelength of 440 nm. Similarly, insulin samples (10 μM) with different incubation times were added to a solution of complex 1-Pt (50 μM) in a PBS buffer (10.0 mM, pH=7.4, 10% DMSO). The emission spectra were recorded at 25° C. at an excitation wavelength of 400 nm. The values of kapp and tlag for insulin amyloid fibrillation were determined from fitting using the sigmoid equation listed above.

[3] = biological target: T1, insulin amyloid fibrillation; assay: effect of L-ascorbic acid on insulin amyloid fibrillation, complex 1-Pt luminescence assay; settings: for kapp of insulin amyloid fibrillation / tlag of insulin amyloid fibrillation: detected by complex 1-Pt
Procedure: as §1, §2, §3

| kapp of insulin amyloid fibrillation ([2]; L-ascorbic acid 10 mM) | tlag of insulin amyloid fibrillation ([2]; L-ascorbic acid 10 mM) | kapp of insulin amyloid fibrillation ([2]; L-ascorbic acid 20 mM) | tlag of insulin amyloid fibrillation ([2]; L-ascorbic acid 20 mM) | kapp of insulin amyloid fibrillation ([2]; L-ascorbic acid 50 mM) | tlag of insulin amyloid fibrillation ([2]; L-ascorbic acid 50 mM) | kapp of insulin amyloid fibrillation ([2]; L-ascorbic acid 70 mM) | tlag of insulin amyloid fibrillation ([2]; L-ascorbic acid 70 mM) | SMILES | kapp (apparent rate constant of insulin amyloid fibrillation) [1] | tlag (lag time of insulin amyloid fibrillation) [1] | inhibition effect on amyloid fibrillation ([3]; L-ascorbic acid 0-100 mM, thioflavin T and complex 1-Pt assays) | kapp of insulin amyloid fibrillation ([3]; L-ascorbic acid 10 mM) | tlag of insulin amyloid fibrillation ([3]; L-ascorbic acid 10 mM) | kapp of insulin amyloid fibrillation ([3]; L-ascorbic acid 20 mM) | tlag of insulin amyloid fibrillation ([3]; L-ascorbic acid 20 mM) | kapp of insulin amyloid fibrillation ([3]; L-ascorbic acid 50 mM) | tlag of insulin amyloid fibrillation ([3]; L-ascorbic acid 50 mM) | kapp of insulin amyloid fibrillation ([3]; L-ascorbic acid 70 mM) | tlag of insulin amyloid fibrillation ([3]; L-ascorbic acid 70 mM) |
| --- | --- | --- | --- | --- | --- | --- | --- | --- | --- | --- | --- | --- | --- | --- | --- | --- | --- | --- | --- |
|  |  |  |  |  |  |  |  | Cc1ccc2c(c1)sc(-c1ccc(N(C)C)cc1)[n+]2C.[Cl-] [Thioflavin T, thioflavin T] | 0.23 ± 0.08 min⁻¹ | 54.0 ± 0.1 min |  |  |  |  |  |  |  |  |  |
| 0.19 ± 0.09 min⁻¹ | 54.3 ± 0.2 min | 0.17 ± 0.08 min⁻¹ | 57.2 ± 0.3 min | 0.17 ± 0.08 min⁻¹ | 68.3 ± 0.3 min | 0.14 ± 0.07 min⁻¹ | 83.0 ± 0.3 min | O=C1O[C@H]([C@@H](O)CO)C(O)=C1O [L-ascorbic acid] |  |  | concentration dependent | 0.18 ± 0.09 min⁻¹ | 53.2 ± 0.2 min | 0.16 ± 0.08 min⁻¹ | 59.2 ± 0.3 min | 0.15 ± 0.07 min⁻¹ | 70.1 ± 0.6 min | 0.12 ± 0.06 min⁻¹ | 85.6 ± 0.6 min |
